We go through one compound from patent publication US20170114025A1, “METHODS FOR INHIBITING NECROPTOSIS” (Catalyst Therapeutics Pty Ltd, priority 2014, published 2017).

By Kd is commonly meant the concentration at which binding is half-saturated.

One data set has as its system U937 cells. The data set is described as follows: Counter screen: cell viability without TSQ cocktail (off target effect). The note with it: U937 without TSQ cocktail. The format is cell-based. How it is done:
In parallel, all compounds are tested for their ability to affect cell viability. The same U937 cells are treated with compound in DMSO without the TSQ cocktail. This counter screen enables evaluation of off-target effects. In this case gain, cell viability is measured by flow cytometry after PI staining.
For orientation: A counterscreen serves to expose hits that act by an unwanted route or on another target.

The target in data set [1] is T1, mouse MLKL(179-464) pseudokinase domain (Mus musculus, UniProt Q9D2Y4).
T1 construct: made in house; host or cells: Sf21 insect cells
T1 sequence (Q9D2Y4 179-464 isoform Q9D2Y4-2): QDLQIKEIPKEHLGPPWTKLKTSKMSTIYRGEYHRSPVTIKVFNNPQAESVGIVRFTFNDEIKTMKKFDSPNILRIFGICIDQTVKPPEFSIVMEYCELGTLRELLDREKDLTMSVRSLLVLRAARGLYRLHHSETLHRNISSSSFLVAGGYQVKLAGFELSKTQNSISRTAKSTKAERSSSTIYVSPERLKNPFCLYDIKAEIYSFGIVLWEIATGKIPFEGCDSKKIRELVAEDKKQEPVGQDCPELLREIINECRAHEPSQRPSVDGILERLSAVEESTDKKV
The data set is described as follows: STD NMR nucleotide competition, mouse MLKL. The format is binding. The following applies: 200 μM compound, 200 μM nucleotide, 2 μM mouse MLKL(179-464). How it is done:
Nucleotides were dissolved in NMR buffer (20 mM HEPES, pH 7.5, 200 mM NaCl, 90% D2O, 10% H2O) at a final concentration of 200 μM in each sample of STD experiments. Three different samples were prepared for each nucleotide: (1) ATP or ADP with protein buffer added as equivalent volume of protein containing samples (2) ATP or ADP with MLKL pseudokinase domain at a final concentration of 2 μM (3) ATP or ADP with MLKL pseudokinase domain (2 μM) with test compound at 200 μM. […] Saturation of the protein resonances was achieved by a 4 s train of Gaussian pulses centred at −0.5 ppm. For the reference spectra, a similar saturation pulse was applied at a frequency centred 20,000 Hz off-resonance. A 15 ms T2-spin-lock period was employed before acquisition to allow the residual protein signal to decay. NMR data were processed in TOPSPIN version 3.2 (Bruker BioSpin).

Data set [2] relates to MLKL translocation in MDFs. The data set is described as follows: Fractionation and Blue Native PAGE, MLKL membrane translocation. The format is cell-based, mouse. The note with it: TSQ up to 6 hours, 1 μM test compound, anti-MLKL blots of Blue-Native PAGE. How it is done: MDFs were seeded in 6 well plates (5×10^5 per well) and allowed to attach overnight. Cells were stimulated with TSQ for up to 6 hours in the presence of 1 μM test compound or DMSO control. Cells were harvested by scraping, washed once in PBS and permeabilized in buffer (20 mM Hepes (pH 7.5), 100 mM KCl, 2.5 mM MgCl2, and 100 mM sucrose) containing 0.025% digitonin (BIOSYNTH, Staad, Switzerland) and supplemented with EDTA-free Complete protease inhibitor cocktail (Roche), 2 μM N-ethyl maleimide, and phosphatase inhibitors (5 mM β-glycerophosphate, 1 mM Na Molybdate, 1 mM Na Pyrophosphate and 100 μM Na Fluoride). Permeabilization was confirmed by trypan blue uptake, and cytosolic and crude membrane fractions were separated by centrifugation at 11,000×g for 5 min. Digitonin was added to the cytoplasmic fraction to a final concentration of 1% and the crude membrane fraction was further solubilized in permeabilization buffer+1% digitonin and incubated on ice for 20 min. Crude membrane suspension was centrifuged at 11,000×g for 5 min and the supernatant loaded alongside cytoplasmic fraction on 4-16% Bis-Tris Native PAGE gel (LifeTechnologies). […] MLKL containing complexes were detected by anti-MLKL (3H1) Western blotting as described above.

The target of data set [3] is T1, mouse MLKL(179-464) pseudokinase domain. The data set is described as follows: Surface Plasmon Resonance (SPR) binding, mouse MLKL. The text has this:
Double His-tagged MLKL and an unrelated negative control reference protein were immobilized on an NTA Capture chip charged with Ni^2+ according to manufacturer's instructions. In some instances, double His-tagged proteins were captured via Ni^2+/NTA chelation on a series S sensor chip containing carboxymethylated dextran surface pre-immobilized with nitrilotriacetic acid (NTA). The surface was then activated and enhanced with NHS/EDC mixture and His captured proteins covalently coupled to the surface as succinamide esters. Ethanolamine was injected later to block any unreacted esters. Unbound Ni^2+ and non-covalently bound proteins were eluted by EDTA injections.
Typical immobilization levels were 2000-3000 Response Units (RU). Flow cell 1 was left blank as a reference surface. Immobilization experiments were carried out at 25° C. in a running buffer containing 20 mM HEPES (pH 8.0), 200 mM NaCl and 0.005% (v/v) surfactant P20.
Binding experiments were carried out in Running Buffer+2% v/v DMSO. […] Data were reduced, solvent corrected, and double referenced by Biacore T200 Evaluation Software. Data were fit globally to a two state kinetic interaction model and the Kd determined from the (kd/ka) ratio. A 1:1 binding stoichiometry was inferred from the steady state binding curves and the maximum observed Response Unit (RU) levels.

Data set [4] concerns U937 cells gene-edited to delete MLKL. The data set is described as follows: Toxicity / TS-induced apoptotic death in U937 cells gene-edited to delete MLKL. In kind it is cell-based, human. The note with it: U937 cells lacking MLKL, TS treatment. The text has this: Mouse dermal fibroblasts (MDFs) were isolated from three MlkI^−/− mice and three congenic wild type mice and then immortalized by SV40 large T antigen to generate three biologically independent cell lines, as described in Murphy J M, et al. (2013), Immunity 39(3):443-453. Immortalized MDFs were similarly prepared from three Ripk3^−/− mice and congenic wild type mice. MDFs and HEK293T were maintained in Dulbecco's modified Eagle's medium (DMEM) supplemented with 8-10% v/v fetal calf serum (FCS), and 5 μg/mL puromycin for lines stably transduced with inducible expression constructs for MLKL. U937 cells were cultured in RPMI1640 supplemented with 8% v/v FCS. Cell death assays were carried out in 24 well plates, seeding 1×10^5 cells per well. Cells attached over 4 h in the presence of 10 ng/mL doxycycline or 20 ng/mL were then treated with assorted combinations of Necrostatin (50 μM) and Q-VD-OPh (5 μM) 30 min prior to addition of TNF (100 ng/mL) and Smac mimetic (500 nM). After 24 h for MDF cells or 48 h for U937 cells, cells were harvested and PI positive cells (1 μg/mL) quantified using a BD FACSCalibur flow cytometer.

Bounds are passed on as bounds.

For `CN(c1ccc(NC(=O)Nc2ccc(OC(F)(F)F)cc2)cc1)c1ccnc(Nc2cccc(S(N)(=O)=O)c2)n1` [Compound 1, 3-((4-(methyl(4-(3-(4-(trifluoromethoxy)phenyl)ureido)phenyl)amino)pyrimidin-2-yl)amino)benzenesulfonamide], in the data set with U937 cells (compound at 500 nM), the “Off target effect (% cell death) at 500 nM” value is below 20%. Also, the “Off target effect (% cell death) at 1 uM” value in the data set with U937 cells (compound at 1 uM) is on record as below 20%. Also, the “Off target effect (% cell death) at 5 uM” value in the data set on U937 cells (compound at 5 uM) was 60%. Also, in the data set on U937 cells (compound at 10 uM), the “Off target effect (% cell death) at 10 uM” value stood at 79%. Further, the “competition with ATP and ADP for binding (STD NMR)” value in data set [1] is “can compete with (i) ATP and (ii) ADP”. For the same compound, the “MLKL translocation to the membrane fraction” value in data set [2] is “retarded translocation to the membrane fraction”. Besides, the Kd in data set [3] amounted to 9.3 µM. Besides, the “effect on TS-induced apoptotic death” value in data set [4] is given as “unaffected”.
